{"source": "paper PMC6509125", "about": "“The selective disruption of presynaptic JNK2/STX1a interaction reduces NMDA receptor-dependent glutamate release” (Scientific Reports, 2019)", "assay_type_in_all_cases": "cell-based, mouse", "key": {"[1]": {"test_system": "presynaptic NMDA receptors", "test": "mEPSC whole cell patch clamp recordings in entorhinal cortex slices", "settings": "TTX 1 µM, PTX 100 µM, MK-801 10 µM in pipette; n = 8"}, "SNARE complex": {"test_system": "SNARE complex", "test": "SNARE complex formation assay in cortical synaptosomes", "settings": "NMDA 100 µM + glycine 1 µM 10 min alone; mean ± s.e.m., n = 4"}, "p54-JNK": {"test_system": "p54-JNK", "test": "p54-JNK phosphorylation, western blot of cortical synaptosomes", "settings": "mean ± s.e.m.; for p54-JNK phosphorylation vs. control, stimulus alone: NMDA 100 µM + glycine 1 µM 10 min or KCl 8 mM 90 s (Fig. 1A), n = 6"}, "[2]": {"test_system": "NMDA-evoked exocytosis, cortical synaptosomes", "test": "Synaptic vesicle release, FM1-43 destaining in cortical synaptosomes", "settings": "NMDA 100 µM + glycine 1 µM, 0 µM JGRi1; mean ± s.e.m., n = 5"}, "p46-JNK": {"test_system": "p46-JNK", "test": "p46-JNK phosphorylation, western blot of cortical synaptosomes", "settings": "NMDA 100 µM + glycine 1 µM 10 min or KCl 8 mM 90 s (Fig. 1A); n = 6"}, "STX1a (Ser14 p-STX1a)": {"test_system": "STX1a (Ser14 p-STX1a)", "test": "STX1a Ser14 phosphorylation, western blot of cortical synaptosomes", "settings": "mean ± s.e.m.; for Ser14 p-STX1a levels vs. control = 1, stimulus alone: NMDA 100 µM + glycine 1 µM 10 min or KCl 8 mM 90 s (Fig. 1B), n = 6"}}, "data": [{"smiles": "NC(CCCP(=O)(O)O)C(=O)O", "note": "[D-AP5]", "values": [{"measurement": "mEPSC amplitude, vehicle vs. D-AP5", "setting": "[1]", "result": "unaffected"}, {"measurement": "mEPSC inter-event interval (iei), vehicle vs. D-AP5", "setting": "[1]", "result": "induced an increase of iei"}]}, {"smiles": "CN[C@H](CC(=O)O)C(=O)O", "note": "[NMDA, N-methyl-D-aspartate]", "values": [{"measurement": "SNARE complex formation vs. control = 1, stimulus alone", "setting": "SNARE complex", "result": "1.85 ± 0.06"}, {"measurement": "p54-JNK phosphorylation vs. control = 1, stimulus alone", "setting": "p54-JNK; NMDA 100 µM + glycine 1 µM 10 min alone (Fig. 4A), n = 7", "result": "1.54 ± 0.12"}, {"measurement": "p54-JNK phosphorylation vs. control, stimulus alone", "setting": "p54-JNK", "result": "1.58 ± 0.12"}, {"measurement": "NMDA-induced release of fluorescent dye FM1-43, stimulus alone", "setting": "[2]", "result": "68% ± 10"}, {"measurement": "p46-JNK phosphorylation, stimulus alone", "setting": "p46-JNK", "result": "unchanged"}, {"measurement": "STX1a phosphorylation vs. control = 1, stimulus alone", "setting": "STX1a (Ser14 p-STX1a); NMDA 100 µM + glycine 1 µM 10 min alone (Fig. 4B), n = 7", "result": "1.51 ± 0.13"}, {"measurement": "Ser14 p-STX1a levels vs. control = 1, stimulus alone", "setting": "STX1a (Ser14 p-STX1a)", "result": "1.38 ± 0.07"}]}, {"smiles": "[Cl-].[K+]", "note": "[KCl]", "values": [{"measurement": "p54-JNK phosphorylation vs. control, stimulus alone", "setting": "p54-JNK", "result": "not by KCl stimulus"}, {"measurement": "p46-JNK phosphorylation, stimulus alone", "setting": "p46-JNK", "result": "unchanged"}, {"measurement": "Ser14 p-STX1a levels vs. control = 1, stimulus alone", "setting": "STX1a (Ser14 p-STX1a)", "result": "1.22 ± 0.11"}]}]}
